These results are taken from patent publication US20250333389A1, “PHARMACEUTICAL FOR THE INHIBITION OF CELLULAR PROTON PUMPS” (AquaRemedi Pharmaceuticals INC, priority 2024, published 2025).

Test [1] has as its target T1, human Hv1 channel (Homo sapiens, UniProt Q96D96).
T1 construct: expressed in transfected cells; host or cells: HEK293T
T1 sequence (Q96D96 1-273): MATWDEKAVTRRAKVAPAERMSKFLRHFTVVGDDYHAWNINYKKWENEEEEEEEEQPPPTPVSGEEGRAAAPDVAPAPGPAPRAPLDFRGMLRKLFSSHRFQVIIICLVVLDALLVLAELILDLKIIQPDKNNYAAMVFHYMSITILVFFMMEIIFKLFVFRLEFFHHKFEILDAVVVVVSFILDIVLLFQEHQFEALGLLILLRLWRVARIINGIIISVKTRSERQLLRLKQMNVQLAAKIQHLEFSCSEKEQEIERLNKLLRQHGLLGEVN
Briefly: Whole cell patch clamp recording of Hv1 proton currents in transfected HEK293T cells. The class given is cell-based. The settings on record: calculated as Ki=Koff/Kon, read-out: inhibition constant Ki for Hv1 channels.

The target in test [2] is T1, human Hv1 channel. Described as above. Conditions: for V1/2 shift of G-V curve: Boltzmann fit; for pore blocker strength for Hv1 channel (in words): conclusion from patch clamp data. The class given is cell-based. An excerpt: For conducting experiments, we used HEK293T cells. The HEK293T cells were purchased from American Type Culture Collection (ATCC). For cell culture, the HEK293T cells were maintained in ATTC's Dulbecco's Modified Eagle's Medium (DMEM) supplemented with a 10% fetal bovine serum (FBS 10%) and 1% penicillin and streptomycin. Plasmids were transfected into cells using a transfection reagent, Lipofectamine™ 2000 according to the manufacturer's instructions (Life Technologies). Experiments were performed 24-48 hours post-transfection.
For the experimental studies, similar techniques as utilized by Zhao et. al is used in this invention. (Zhao et al., Role of human Hv1 channels in sperm capacitation and white blood cell respiratory burst established by a designed peptide inhibitor, Proc Natl Acad Sci USA. 2018, PMID: 30478045, PMCID: PMC6294887).
In the present invention, a Whole Cell patch clamp technique was utilized to study the Hv1 proton currents. The proton currents passed by Hv1 were recorded in Whole Cell mode using an Axon™ Axopatch™ 200B microelectrode amplifier. Stimulation and data collection were performed by a high-resolution, low-noise digitizer, Digidata 1322A, manufactured by Axon Instruments, Inc.) and Axon™ pCLAMP™ 10 Electrophysiology Data Acquisition & Analysis Software (released by Molecular Devices). Cells were perfused with an external bath solution comprised of a zwitterionic sulfonic acid buffering agent (100 mM HEPES), 100 mM NaCl, and 10 mM glucose at pH 7.5. During the patch clamp recording, the patch pipettes with a resistance between 3 and 5 MΩ were filled with 100 mM Bis-Tris buffer, 100 mM NaCl, and 10 mM glucose at pH 6.0. The sampling frequency was 10 kHz and the signals were filtered at 1 KHz.
Fractional unblocked current was assessed at the end of the test pulse.
Dose-response curves (the time course for block and unblock of Hv1 as shown in FIG. 9) show the fractional unblocked current, Icompound/Icontrol, versus toxin concentration. The curves were fit to the Hill equation, Fun=(1+([compound]/Ki)h)−1), wherein the [compound] is the effective compound concentration, Fun is the fraction of unblocked current at equilibrium. Ki is the inhibition constant and h is the Hill coefficient.
In general terms: In patch-clamp work, channel activity is measured electrically.

The mark [3] stands for this setting: 100 nM compound, at −20 mV, holding −60 mV.

“Also recorded” adds a separate entry of the source. Where two headings read alike, the source gives them in different places.

Turning to `C=C[C@@H]1CS[C@H](c2ccccc2)N1C(=O)OC(C)(C)C` [Original Compound, (2R,4R)-tert-butyl 2Phenyl-4-vinylthiazolidine-3-carboxylate], in test [1], the Ki is 3 µM. The “V1/2 shift of G-V curve” value in test [2] (10 μM compound, shift to the left) was approximately 15 mV. For the same molecule, the “block of Hv1 current” value in test [2] (10 μM compound, at −20 mV, holding −60 mV) came to 20%. Also, the “pore blocker strength for Hv1 channel (in words)” value (from here on “pore blocker strength”) in test [2] was “weak pore blocker”.

In the case of `CC(C)(C)OC(=O)N1[C@H](CO)CS[C@@H]1c1ccccc1` [S1, (2R,4R)-tert-butyl 4-(hydroxymethyl)-2-Phenylthiazolidine-3-carboxylate], the Ki in test [1] (I-V plot, −20 mV) was 0.003 µM. Also, the “time course of block (washin)” value in test [2] (100 nM applied to Hv1 channels) is recorded as “blocks the channel current immediately”. Further, the “V1/2 shift of G-V curve” value in test [2] (100 nM compound) is listed as “about 41 mV”. Further, in test [2] (setting [3]), the “block of Hv1 channel current” value is on record as 92%. In addition, in test [2], the “pore blocker strength” value is recorded as “strong nano-molar pore blocker; also recorded: relatively strong pore blocker”. Also, in test [2] (washed away with isotonic saline), the “time course of unblock (washout)” value was “the current resumes”.

Turning to `O=C(O)[C@@H]1CS[C@H](c2ccccc2)N1` [S2, (2R,4R)-2-phenylthiazolidine-4-carboxylic acid], in test [1] (I-V plot, −20 mV), the Ki is 0.02 µM. The “V1/2 shift of G-V curve” value in test [2] (100 nM compound) is listed as “about 35 mV”. Besides, the “block of Hv1 channel current” value in test [2] (setting [3]) worked out at 85%. For the same molecule, the “pore blocker strength” value in test [2] was “strong nano-molar pore blocker”.

The Ki is a measure of affinity in units of concentration, obtained from inhibition or displacement.
